Test results as given in publication PMC9143880, “Improving Antimicrobial Activity and Physico-Chemical Properties by Isosteric Replacement of 2-Aminothiazole with 2-Aminooxazole” (Pharmaceuticals, 2022).
In brackets after ≈: the same amount, converted by molar mass. Read-outs that look alike come from different tables or passages of the source.

Assays:
[1] = RP-UHPLC lipophilicity parameter log k’w; type: physicochemical; details: for log k’w: RP-UHPLC, acetonitrile/water, log k extrapolated to 0% acetonitrile; for logkw: experimental lipophilicity parameter
Summary of the method: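 Retention was measured once per eluent composition: subtype I at 40/45/50% and subtype II at 20/30/40% acetonitrile in water, isocratic RP-UHPLC. log k values from these runs gave the lipophilicity index log k’w.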

HepG2 cells = test: HepG2 cytotoxicity screening (CellTiter 96); type: cell-based, human; details: for IC50: Homo sapiens, HepG2, 24 h, 24 h incubation, CellTiter 96, * above highest tested concentration, ** limited by insolubility in medium; for SI: SI = IC50 (µM) HepG2 / MICH37Ra (µM)
[2] = test system: Mycobacterium tuberculosis H37Ra ITM-M006710 (ATCC 9431); test: Antimycobacterial MIC, microdilution broth / Alamar Blue (resazurin); type: cell-based; details: Mycobacterium tuberculosis
[3] = test system: M. smegmatis DSM 43465 (ATCC 607); test: Antimycobacterial MIC, microdilution broth / resazurin; type: cell-based; details: Mycolicibacterium smegmatis; resazurin after 48 h; read-out: MIC M. smegmatis
[4] = test system: M. aurum DSM 43999 (ATCC 23366); test: as above; type: cell-based; details: Mycolicibacterium aurum, read-out: MIC M. aurum
[5] = Kinetic water solubility (water-induced precipitation of DMSO stock, UHPLC); type: physicochemical; details: for solubility: water (DMSO stock diluted with water), 18 °C, kinetic from dmso stock
Source text: A low value of log P is often presumed to be related to increased water solubility, although this might not always be the case since log P is a measure of relative solubility of the compound in the lipophilic and hydrophilic solvents (at equilibrium). Therefore, to be sure, we tested whether the lowered log k’w (related to log P) of the oxazole derivatives would also translate to increased solubility in water in a few representative derivatives. The water solubility of selected compounds was assessed by the kinetic method based on water-induced precipitation of DMSO stock solutions of tested compounds due to reasons described by Azzali and colleagues.
Water solubility was investigated using the kinetic solubility method. The sample (1 mg) was dissolved in the smallest amount of DMSO needed, 25 or 50 μL for subtype I and subtype II compounds, respectively. The samples were mixed at 18 °C in a thermomixer (Thermomixer comfort, Eppendorf, Hamburg, Germany) for 1 h. After mixing, the samples were diluted with water to a concentration of 500 μM, and the precipitate was observed. The sample was filtered through a 0.22 μm filter and diluted to be evaluated by UHPLC. The log S parameter was calculated from the experimental solubility in molar concentration. The samples were measured using the same instrument, software, and column as used in the purity evaluation.

[6] = test system: Staphylococcus aureus subsp. aureus CCM 4223 (ATCC 29213); test: Antibacterial microdilution broth (EUCAST); type: cell-based; details: Staphylococcus aureus; 24h incubation; read-out: MIC SA
[7] = test system: Staphylococcus aureus subsp. aureus (MRSA) CCM 4750 (ATCC 43300); test: Antibacterial microdilution broth (EUCAST); type: cell-based; details: Staphylococcus aureus; 24h incubation; read-out: MIC MRSA
[8] = test system: Staphylococcus epidermidis CCM 4418 (ATCC 12228); test: Antibacterial microdilution broth (EUCAST); type: cell-based; details: Staphylococcus epidermidis; 24h incubation; read-out: MIC SE
[9] = test system: Enterococcus faecalis CCM 4224 (ATCC 29212); test: Antibacterial microdilution broth (EUCAST); type: cell-based; details: Enterococcus faecalis; 24h incubation; read-out: MIC EF
[10] = test system: Escherichia coli CCM 3954 (ATCC 25922); test: Antibacterial microdilution broth (EUCAST); type: cell-based; details: Escherichia coli; 24h incubation; read-out: MIC EC
[11] = test system: Acinetobacter baumannii DSM 30007 (ATCC 19606); test: Antibacterial microdilution broth (EUCAST); type: cell-based; details: Acinetobacter baumannii; 24h incubation; read-out: MIC AB
[12] = test system: Pseudomonas aeruginosa CCM 3955 (ATCC 27853); test: Antibacterial microdilution broth (EUCAST); type: cell-based; details: Pseudomonas aeruginosa; 72h incubation; read-out: MIC PA
[13] = test system: Candida albicans CCM 8320 (ATCC 24433); test: Antifungal microdilution broth (EUCAST); details: Candida albicans, 24 h, read-out: MIC CA
[14] = test system: Candida krusei CCM 8271 (ATCC 6258); test: Antifungal microdilution broth (EUCAST); details: Pichia kudriavzevii, 24 h, read-out: MIC CK
[15] = test system: Candida parapsilosis CCM 8260 (ATCC 22019); test: Antifungal microdilution broth (EUCAST); details: Lodderomyces parapsilosis, 24 h, read-out: MIC CP
[16] = test system: Candida tropicalis CCM 8264 (ATCC 750); test: Antifungal microdilution broth (EUCAST); details: Candida tropicalis, 24 h, read-out: MIC CT
[17] = test system: Aspergillus fumigatus ATCC 204305; test: Antifungal microdilution broth (EUCAST); details: Aspergillus fumigatus, ATCC204305, 24 h, read-out: MIC AF
[18] = test system: Aspergillus flavus CCM 8363; test: Antifungal microdilution broth (EUCAST); details: Aspergillus flavus, CCM8363, 24 h, read-out: MIC AFla
[19] = test system: Lichtheimia corymbifera CCM 8077; test: Antifungal microdilution broth (EUCAST); details: Lichtheimia corymbifera, CCM8077, 24 h, read-out: MIC LC
[20] = test system: Trichophyton interdigitale CCM 8377 (ATCC 9533); test: Antifungal microdilution broth (EUCAST); details: Trichophyton interdigitale, 72 h, read-out: MIC TI
[21] = test system: M. avium DSM 44156 (ATCC 25291); test: Antimycobacterial MIC, microdilution broth / resazurin; type: cell-based, Mycobacterium avium; details: Mycobacterium avium; resazurin after 96 h; read-out: MIC M. avium
[22] = test system: M. kansasii DSM 44162 (ATCC 12478); test: as above; type: cell-based; details: Mycobacterium kansasii, read-out: MIC M. kansasii
Mtb laboratory ID IZAK = type: cell-based, Mycobacterium tuberculosis; details: MDR strain IZAK, CLSI breakpoints 2020
Mtb laboratory ID MATI = type: cell-based, Mycobacterium tuberculosis; details: MDR strain MATI, CLSI breakpoints 2021
[23] = 120 h, Middlebrook 7H9, resazurin after 120 h, read-out: Mtb H37Ra MIC
[24] = calculated from experimentally measured water solubility in molar concentration, read-out: Exp. log S (converted)
[25] = water, kinetic method, DMSO stock diluted to 500 μM, read-out: Solubility
[26] = recalculated from µg/mL, read-out: MICH37Ra

| Structure (SMILES) | log k’w [1] | logkw [1] | IC50 (HepG2 cells) [µM] | MIC [2, 23] [µg/mL] | MIC [3] [µg/mL] | MIC [6] [µM] | MIC [7] [µM] | MIC [8] [µM] | MIC [9] [µM] | MIC [10] [µM] | MIC [11] [µM] | MIC [12] [µM] | MIC [13] [µM] | MIC [14] [µM] | MIC [15] [µM] | MIC [16] [µM] | MIC [17] [µM] | MIC [18] [µM] | MIC [19] [µM] | MIC [20] [µM] | other results |
| --- | --- | --- | --- | --- | --- | --- | --- | --- | --- | --- | --- | --- | --- | --- | --- | --- | --- | --- | --- | --- | --- |
| O=C(Nc1ncco1)c1cccnc1 [Compound 2b] | 0.436 | 0.4358 | > 1000 | 31.2 | 62.5 (≈ 330 µM) | 250 (≈ 47.3 µg/mL) | 500 (≈ 94.6 µg/mL) | 500 (≈ 94.6 µg/mL) | > 500 | > 500 | > 500 | > 500 | 500 (≈ 94.6 µg/mL) | 500 (≈ 94.6 µg/mL) | 250 (≈ 47.3 µg/mL) | > 500 | > 500 | > 500 | > 500 | 125 (≈ 23.6 µg/mL) | MIC ([4]; resazurin after 72 h): 15.6 µg/mL (≈ 82.6 µM); logS_exp ([5]; experimental log S): -0.9171; melting point: 155 to 160 °C |
| O=C(Nc1nccs1)c1ccnc(Cl)c1 [Compound 6a] | 2.013 | 2.013 | > 250 | ≥ 500 | ≥ 500 | > 500 | > 500 | > 500 | > 500 | > 500 | > 500 | > 500 | > 500 | > 500 | > 500 | > 500 | > 500 | > 500 | > 500 | > 500 | MIC ([4]; resazurin after 72 h): ≥ 500 µg/mL; MIC [21]: ≥ 500 µg/mL; MIC ([22]; resazurin after 96 h): ≥ 500 µg/mL; solubility [5, 24]: 126 µM; solubility [5, 25]: 29.9 µg/mL; melting point: 152 to 154 °C |
| O=C(Nc1nc(-c2ccccc2)cs1)c1ccnc(Cl)c1 [Compound 15a] | 3.036 | 3.036 | 103 | 3.91 | 15.6 (≈ 49.5 µM) | > 500 | > 500 | > 500 | > 500 | > 500 | > 500 | > 500 | > 125 | > 125 | > 125 | > 125 | > 125 | > 125 | > 125 | > 125 | SI (HepG2 cells): 8.3; MIC [2, 26]: 12.4 µM; MIC ([4]; resazurin after 72 h): 31.2 µg/mL (≈ 99 µM); MIC [21]: 15.6 µg/mL (≈ 49.5 µM); MIC ([22]; 96 h): < 3.91 µg/mL; solubility [5, 24]: 6.61 µM; solubility [5, 25]: 2.1 µg/mL; melting point: 158 to 162 °C |
| O=C(Nc1nc(-c2ccccc2)co1)c1ccnc(Cl)c1 [Compound 15b] | 1.992 | 1.992 | 136 | 7.81 | 31.2 (≈ 104 µM) | 62.5 (≈ 18.7 µg/mL) | 62.5 (≈ 18.7 µg/mL) | 250 (≈ 74.9 µg/mL) | 250 (≈ 74.9 µg/mL) | > 500 | 500 (≈ 150 µg/mL) | > 500 | 500 (≈ 150 µg/mL) | 500 (≈ 150 µg/mL) | 500 (≈ 150 µg/mL) | 500 (≈ 150 µg/mL) | > 500 | > 500 | > 500 | 500 (≈ 150 µg/mL) | SI (HepG2 cells): 5.2; MIC [2, 26]: 26.1 µM; MIC ([4]; 72 h): 7.81 µg/mL (≈ 26.1 µM); MIC [21]: 15.6 µg/mL (≈ 52.1 µM); MIC ([22]; resazurin after 96 h): 15.6 µg/mL (≈ 52.1 µM); solubility [5, 24]: 417 µM; solubility [5, 25]: 124 µg/mL |
| NC(=O)c1cnccn1 [PZA, pyrazinamide] | – | – | – | – | – | – | – | – | – | – | – | – | – | – | – | – | – | – | – | – | Concentration (susceptibility profile) (Mtb laboratory ID IZAK): > 16 µg/mL; Susceptibility (Mtb laboratory ID IZAK): resistant; Concentration (susceptibility profile) (Mtb laboratory ID MATI): > 128 µg/mL; Susceptibility (Mtb laboratory ID MATI): resistant |
| [H]/N=C(/N)N[C@H]1[C@H](O)[C@@H](O)[C@H](O[C@@H]2O[C@@H](C)[C@](O)(C=O)[C@H]2O[C@@H]2O[C@@H](CO)[C@H](O)[C@@H](O)[C@@H]2NC)[C@@H](N/C(N)=N\[H])[C@@H]1O [STM, streptomycin] | – | – | – | – | – | – | – | – | – | – | – | – | – | – | – | – | – | – | – | – | Concentration (susceptibility profile) (Mtb laboratory ID IZAK): 4 µg/mL; Susceptibility (Mtb laboratory ID IZAK): resistant; Concentration (susceptibility profile) (Mtb laboratory ID MATI): > 16 µg/mL; Susceptibility (Mtb laboratory ID MATI): resistant |
